One may read the IC50 as the concentration needed to halve the response being measured.

In one test the test system is HCT116 cells. Briefly: LDH release cytotoxicity assay, HCT116. The conditions noted are these: Homo sapiens, HCT-116, 48 h, mean ± SD, read-out: In vitro cytotoxicity IC50 µM ± SD, HCT116. The test is classed as cell-based. The protocol: (§1) HepG2 (Human liver carcinoma), HCT116 (human colorectal carcinoma), MCF7 (human breast adenocarcinoma), and the normal human skin fibroblast (BJ-1) cell lines were purchased from the american type culture collection (Rockville, MD, USA) and maintained in RPMI-1640 medium which was supplemented with 10% heat-inactivated FBS, 100U/ml penicillin and 100U/ml streptomycin. The cells were grown at 37 °C in a humidified atmosphere of 5% CO2. All experiments were conducted thrice in triplicate (n = 3). All the values were represented as means ± SD. Significant differences between the means of parameters as well as IC50s were determined by probit analysis using SPSS software program (SPSS Inc., Chicago, IL).
(§2) To determine the effect of each synthesized compound on membrane permeability in HepG2, MCF-7 and HCT116 cancer cell lines as well as BJ-1 normal cell line, a lactate dehydrogenase (LDH) release assay was used[29]–[33]. The cells were seeded in 24-well culture plates at a density of 1 × 10^4 cells/well in 500 µL volume and allowed to grow for 18 h before treatment. After treatment with a series of different concentrations of each compound or DOX (positive control), the plates were incubated for 48 h. Then, the supernatant (40 µL) was transferred to a new 96 well to determine LDH release and 6% triton X-100 (40 µL) was added to the original plate for determination of total LDH. An aliquot of 0.1 M potassium phosphate buffer (100 µL, pH 7.5) containing 4.6 mM pyruvic acid was mixed to the supernatant using repeated pipetting. Then, 0.1 M potassium phosphate buffer (100 µL, pH 7.5) containing 0.4 mg/mL reduced β-NADH was added to the wells. The kinetic changes were read for 1 min using ELISA microplate reader in absorbance at wavelength 340 nm. This procedure was repeated with 40 µL of the total cell lysate to determine total LDH. The percentage of LDH release was determined by dividing the LDH released into the media by the total LDH following cell lysis in the same well. The cell Passage numbers for MCF 7 = P13, Hep G2 = P15, HCT 116 = P 9.
(§3) All experiments were conducted in triplicate (n = 3). All the values were represented as mean ± SD. Significant differences between the means of parameters as well as IC50s were determined by probit analysis using SPSS software program (SPSS Inc., Chicago, IL).

The next test relates to MCF7 cells. Briefly: LDH release cytotoxicity assay, MCF7. Format: cell-based. To be noted: Homo sapiens, 48 h, mean ± SD, read-out: In vitro cytotoxicity IC50 µM ± SD, MCF7. The protocol:
as §1, §2, §3
On the technique in general: Release of lactate dehydrogenase indicates damage to the cell membrane.

For another test, the system named is HepG2 cells. Description: LDH release cytotoxicity assay, HepG2. Format: cell-based. To be noted: Homo sapiens, 48 h, mean ± SD, read-out: In vitro cytotoxicity IC50 µM ± SD, HepG2. The protocol: as §1, §2, §3
In a further test the test system is beta-tubulin. Description: Inhibition of tubulin polymerization in MCF-7 cells (beta-tubulin SimpleStep ELISA). To be noted: MCF7 cells, concentration not given. The test is classed as cell-based, human. The source says:
Beta-tubulin in vitro simple step ELISA® (Enzyme-Linked Immunosorbent Assay) kit is designed for quantitative measurement of beta-tubulin protein in human cell and tissue homogenate extract samples.
The SimpleStep ELISA® employs an affinity tag labeled capture antibody and a reporter conjugated detector antibody which immunocapture the sample analyte in solution. This entire complex (capture antibody/analyte/detector antibody) is in turn immobilized via immunoaffinity of an anti-tag antibody coating the well. To perform the assay, samples or standards are added to the wells, followed by the antibody mix. After incubation, the wells are washed to remove unbound material. TMB development solution is added and during incubation is catalyzed by horseradish peroxidase (HRP), generating blue coloration. This reaction is then stopped by addition of stop solution completing any color change from blue to yellow. Signal is generated proportionally to the amount of bound analyte and the intensity is measured at 450 nm. Optionally, instead of the endpoint reading, development of TMB can be recorded kinetically at 600 nm. The concentration of beta-tubulin protein in the samples is determined by comparing the optical density (OD) of the samples to the standard curve. Each experiment was repeated two times (Table 2).
Background: In an ELISA, binding on a coated surface is turned into a signal by an enzyme label.

A further test has as its system Topo II. Briefly: Inhibition of topoisomerase II in MCF-7 cells (TOP2B sandwich ELISA). The conditions noted are these: MCF7 cells, concentration not given. Format: cell-based, human. The protocol: Mouse TOP2B/Topoisomerase II Beta ELISAKit (Sandwich ELISA) is designed for the quantitative measurement of Topo II enzyme.
This assay is based on the sandwich ELISA principle. Each well of the supplied microtiter plate has been pre-coated with a target specific capture antibody. Standards or samples are added to the wells, and the target antigen binds to the capture antibody. Unbound standard or sample is washed away. A biotin-conjugated detection antibody is then added which binds to the captured antigen. Unbound detection antibody is washed away. An avidin-horseradish peroxidase (HRP) conjugate is then added which binds to the biotin. Unbound avidin-HRP conjugate is washed away. A TMB substrate is then added which reacts with the HRP enzyme resulting in color development. A sulfuric acid stop solution is added to terminate color development reaction and then the optical density (OD) of the well is measured at a wavelength of 450 nm ± 2 nm. An OD standard curve is generated using known antigen concentrations; the OD of an unknown sample can then be compared to the standard curve to determine its antigen concentration. Each experiment was repeated two times (Table 3).

Consider `COc1cc(-c2cc(-c3ccco3)c(C#N)c(N=P(c3ccccc3)(c3ccccc3)c3ccccc3)n2)cc(OC)c1OC` [Compound 40, 4-(Furan-2-yl)-6-(3,4,5-trimethoxyphenyl)-2-((triphenyl-λ^5-phosphaneylidene)amino)nicotino-nitrile], for which the concentration for half-maximal inhibition (IC50) in the test with HCT116 cells came out at 55.7 ± 4.9 µM; with MCF7 cells, 5.7 ± 0.2 µM; in the test with HepG2 cells, 27.7 ± 2.1 µM.

Regarding `COc1ccc(-c2cc(-c3cc(OC)c(OC)c(OC)c3)c(C#N)c(N=P(c3ccccc3)(c3ccccc3)c3ccccc3)n2)cc1` [Compound 34, 6-(4-Methoxyphenyl)-4-(3,4,5-trimethoxyphenyl)-2-((triphenyl-λ^5-phosphaneylidene)amino)-nicotinonitrile], the IC50 in the test on HCT116 cells was 49.9 ± 4.2 µM; in the test with MCF7 cells, 5.1 ± 0.2 µM; in the test on HepG2 cells it was 28.4 ± 2.3 µM.

For the compound `COc1cc(OC)cc(-c2cc(-c3ccc(OC)c(OC)c3)n3nnnc3c2C#N)c1` [Compound 29, 5-(3,4-dimethoxyphenyl)-7-(3,5-dimethoxyphenyl)tetrazolo[1,5-a]pyridine-8-carbonitrile], the IC50 in the test on HCT116 cells stood at 55.4 ± 5.1 µM; in the test on MCF7 cells it was 3.1 ± 0.3 µM; in the test with HepG2 cells, 27.1 ± 2.5 µM.

As for `COc1ccc(-c2cc(-c3cc(OC)c(OC)c(OC)c3)c(C#N)c(Cl)n2)cc1OC` [Compound 19, 2-Chloro-6-(3,4-dimethoxyphenyl)-4-(3,4,5trimethoxyphenyl)nicotinonitrile], the IC50 in the test with HCT116 cells stood at 44.1 ± 4.7 µM; in the test on MCF7 cells it was 2.7 ± 0.2 µM; with HepG2 cells, 24.1 ± 2.2 µM.

In the case of `Cc1cc(-c2ccco2)c(C#N)c2nnnn12` [Compound 33, 7-(furan-2-yl)-5-methyltetrazolo[1,5-a]pyridine-8-carbonitrile], the values for the IC50 with HCT116 cells, in the test with MCF7 cells and with HepG2 cells were 40.7 ± 3.9 µM, 2.6 ± 0.2 µM and 25.2 ± 2.5 µM, respectively. Besides, in the test on beta-tubulin, the “tubulin polymerization % inhibition” value amounted to 68.9%.

Take `COc1cccc2c1C(=O)c1c(O)c3c(c(O)c1C2=O)C[C@@](O)(C(=O)CO)C[C@@H]3O[C@H]1C[C@H](N)[C@H](O)[C@H](C)O1` [DOX, doxorubicin, reference compound]: the IC50 in the test on HCT116 cells turned out to be 12.5 ± 1.5 µM; in the test with MCF7 cells it was 2.8 ± 0.3 µM; in the test on HepG2 cells, 2.6 ± 0.2 µM. In addition, the “Topo II % inhibition” value with Topo II is 81.6%.

As to `COc1ccc(-c2cc(-c3cc(OC)c(OC)c(OC)c3)c(C#N)c(N=P(c3ccccc3)(c3ccccc3)c3ccccc3)n2)cc1OC` [Compound 35, 6-(3,4-Dimethoxyphenyl)-4-(3,4,5-trimethoxyphenyl)-2-((triphenyl-λ^5-phosphaneylidene)-amino)nicotinonitrile], the IC50 is 57.6 ± 4.1 µM in the test with HCT116 cells, 2.7 ± 0.1 µM in the test on MCF7 cells and 32.4 ± 3.1 µM with HepG2 cells. In addition, in the test with beta-tubulin, the “tubulin polymerization % inhibition” value is listed as 61.9%.

`COc1cc(-c2cc(-c3cc(OC)c(OC)c(OC)c3)c(C#N)c(N=P(c3ccccc3)(c3ccccc3)c3ccccc3)n2)cc(OC)c1OC` [Compound 36, 4,6-Bis(3,4,5-trimethoxyphenyl)-2-((triphenyl-λ^5-phosphaneylidene)amino)nicotinonitrile]: the IC50 in the test with HCT116 cells turned out to be 41.7 ± 4.1 µM; in the test on MCF7 cells it was 3 ± 0.1 µM; in the test on HepG2 cells, 25.2 ± 2.1 µM.

As for `COc1ccc(-c2cc(-c3ccc(OC)c(OC)c3)n3nnnc3c2C#N)cc1` [Compound 31, 5-(3,4-dimethoxyphenyl)-7-(4-methoxyphenyl)tetrazolo[1,5-a]pyridine-8-carbonitrile], the IC50 was 31 ± 2.5 µM in the test on HCT116 cells, 3.1 ± 0.3 µM with MCF7 cells and 25.7 ± 2.4 µM with HepG2 cells.

With `COc1ccc(-c2cc(-c3cc(OC)cc(OC)c3)c(C#N)c(Cl)n2)cc1` [Compound 22, 2-Chloro-4-(3,5-dimethoxyphenyl)-6-(4-methoxyphenyl)nicotinonitrile], the IC50 with HCT116 cells stood at 36.8 ± 3.5 µM; with MCF7 cells, 2.6 ± 0.2 µM; with HepG2 cells, 25.3 ± 2.3 µM. For the same compound, the “Topo II % inhibition” value with Topo II is 42%. For the same compound, in the test on beta-tubulin, the “tubulin polymerization % inhibition” value was found to be 70.9%.

As to `COc1ccc(-c2cc(-c3cc(OC)cc(OC)c3)c(C#N)c3nnnn23)cc1` [Compound 30, 7-(3,5-dimethoxyphenyl)-5-(4-methoxyphenyl)tetrazolo[1,5-a]pyridine-8-carbonitrile], the figures for the IC50 with HCT116 cells, in the test on MCF7 cells and in the test on HepG2 cells were 40.5 ± 3.3 µM, 3.2 ± 0.2 µM and 27.1 ± 2.2 µM, respectively.

On to `COc1ccc(-c2cc(-c3cc(OC)c(OC)c(OC)c3)c(C#N)c(Cl)n2)cc1` [Compound 18, 2-Chloro-6-(4-methoxyphenyl)-4-(3,4,5-trimethoxyphenyl)nicotinonitrile], for which the half-inhibitory concentration (IC50) in the test on HCT116 cells is 45.6 ± 4.1 µM; with MCF7 cells it was 2.9 ± 0.2 µM; in the test with HepG2 cells, 26.2 ± 2.5 µM.

For `COc1cc(OC)cc(-c2cc(-c3ccc(OC)c(OC)c3)nc(Cl)c2C#N)c1` [Compound 21, 2-Chloro-6-(3,4-dimethoxyphenyl)-4-(3,5-dimethoxyphenyl)nicotinonitrile], the figures for the IC50 in the test with HCT116 cells, in the test on MCF7 cells and in the test on HepG2 cells were 48.1 ± 4.2 µM, 2.8 ± 0.2 µM and 12.3 ± 1.5 µM, respectively.

In the case of `COc1cc(-c2cc(-c3ccco3)c(C#N)c(Cl)n2)cc(OC)c1OC` [Compound 24, 2-Chloro-4-(furan-2-yl)-6-(3,4,5-trimethoxyphenyl)nicotinonitrile], the IC50 in the test with HCT116 cells was determined as 49.3 ± 4.2 µM; with MCF7 cells, 2.5 ± 0.2 µM; with HepG2 cells, 22.7 ± 2.1 µM. Besides, in the test with Topo II, the “Topo II % inhibition” value is 55.3%. The “tubulin polymerization % inhibition” value with beta-tubulin was determined as 55.4%.

`COc1ccc(-c2cc(-c3ccc(OC)c(OC)c3)nc(Cl)c2C#N)cc1` [Compound 23, 2-Chloro-6-(3,4-dimethoxyphenyl)-4-(4-methoxyphenyl)nicotinonitrile]: the figures for the IC50 in the test with HCT116 cells, in the test with MCF7 cells and in the test with HepG2 cells were 49.1 ± 5.1 µM, 2.6 ± 0.2 µM and 29.4 ± 2.3 µM, respectively.

As to `COc1cc(-c2cc(-c3ccco3)c(C)c3nnnn23)cc(OC)c1OC` [Compound 32, 7-(furan-2-yl)-8-methyl-5-(3,4,5-trimethoxyphenyl)tetrazolo[1,5-a]pyridine], the half-maximal inhibitory concentration (IC50) in the test with HCT116 cells was 98 ± 8.6 µM; in the test on MCF7 cells, 3 ± 0.3 µM; in the test with HepG2 cells, 28.2 ± 2.5 µM.

As to `COc1ccc(-c2cc(-c3cc(OC)c(OC)c(OC)c3)c(C#N)c3nnnn23)cc1OC` [Compound 27, 5-(3,4-dimethoxyphenyl)-7-(3,4,5-trimethoxyphenyl)tetrazolo[1,5-a]pyridine-8-carbonitrile], the values for the IC50 in the test on HCT116 cells, with MCF7 cells and in the test on HepG2 cells were 60.1 ± 6.2 µM, 2.5 ± 0.2 µM and 25.5 ± 2.4 µM, respectively. Also, the “tubulin polymerization % inhibition” value in the test on beta-tubulin is 49.8%.

Take `COc1cc(-c2cc(-c3cc(OC)c(OC)c(OC)c3)n3nnnc3c2C#N)cc(OC)c1OC` [Compound 28, 5,7-bis(3,4,5-trimethoxyphenyl)tetrazolo[1,5-a]pyridine-8-carbonitrile]: the half-inhibitory concentration (IC50) with HCT116 cells came to 78.6 ± 5.9 µM; with MCF7 cells, 3 ± 0.2 µM; in the test with HepG2 cells it was 29.9 ± 3.1 µM.

The values above are taken from article PMC13303826, “Nicotinonitrile based dual inhibitors of tubulin and topoisomerase II exhibit potent anticancer activity” (Scientific Reports, 2026).
